Results on eleven compounds are retold here after US20250340538A1, “IMIDAZOLONE DERIVATIVES AS INHIBITORS OF PROTEIN KINASES IN PARTICULAR DYRK1A, CLK1 AND/OR CLK4” (PERHA PHARMACEUTICALS, priority 2021, published 2025).

Holding throughout (type): biochemical
One experiment has as its target T1, CLK2 (Homo sapiens, UniProt P49760).
T1 construct: GST-fusion or His-tag (not specified per kinase); purchased ProQinase GmbH; host or cells: Sf9 insect cells or E. coli (not specified per kinase)
In words: Radiometric protein kinase assay (33PanQinase Activity Assay), CLK2. To be noted: read-out: IC50 on CLK2 (most potent CLK2 inhibitors). The method, then:
(§1) Assays were performed by ProQinase GmbH (Engesserstr. 4, D-79108 Freiburg, Germany. www.proqinase.com). The IC50 profile of all compounds was determined using 12 protein kinases (CDK2/cyclin E, CK1ε, CLK1, 2, 3, 4, DYRK1A, 1B, 2, 3, 4, GSK3β).
(§2) The compounds were provided as […] in 100% DMSO. Prior to testing, the 1 μM stock solutions were subjected to a serial, semi-logarithmic dilution using 100% DMSO as a solvent. […] In the process, 90 μl H2O were added to each well of each compound dilution plate. To minimize potential precipitation, the H2O was added to each plate only a few minutes before the transfer of the compound solutions into the assay plates. The plate was shaken thoroughly, resulting in a compound dilution plate/10% DMSO.
(§3) For the assays (see below), 5 μL solution from each well of the compound dilution plates/10% DMSO were transferred into the assay plates. The final volume of the assay was 50 μL. All compounds were tested at 10 final assay concentrations in the range from 10 μM to 30 nM. The final DMSO concentration in the reaction cocktails was 1% in all cases.
(§4) All protein kinases provided by ProQinase were expressed in Sf9 insect cells or in E. coli as recombinant GST-fusion proteins or His-tagged proteins, either as full-length or enzymatically active fragments. All kinases were produced from human cDNAs and purified by either GSH-affinity chromatography or immobilized metal. Affinity tags were removed from a number of kinases during purification. The purity of the protein kinases was examined by SDS-PAGE/Coomassie staining, the identity was checked by mass spectroscopy.
(§5) A radiometric protein kinase assay (33PanQinase® Activity Assay) was used for measuring the kinase activity of the 12 protein kinases. All kinase assays were performed in 96-well FlashPlates™ from PerkinElmer (Boston, MA, USA) in a 50 μL reaction volume. The reaction cocktail was pipetted in four steps in the following order: • 25 μL of assay buffer (standard buffer/[γ-^33P]-ATP), • 10 μL of ATP solution (in H2O), • 5 μL of test compound (in 10% DMSO), • 10 μL of enzyme/substrate mixture.
(§6) The reaction cocktails were incubated at 30° C. for 60 minutes. The reaction was stopped with 50 μL of 2% (v/v) H3PO4, plates were aspirated and washed two times with 200 μL 0.9% (w/v) NaCl. Incorporation of ^33Pi was determined with a microplate scintillation counter (Microbeta, Wallac). The IC50 values for all compounds were calculated from the dose response curves
(§7) As a parameter for assay quality, the Z′-factor (Zhang et al., J. Biomol. Screen. 2: 67-73, 1999) for the low and high controls of each assay plate (n=8) was used. ProQinase's criterion for repetition of an assay plate is a Z′-factor below 0.4 (Iversen et al., J. Biomol. Screen. 3: 247-252, 2006).

In a further experiment the target is T2, DYRK3 (Homo sapiens, UniProt O43781).
T2 construct: GST-fusion or His-tag (not specified per kinase); purchased ProQinase GmbH; host or cells: Sf9 insect cells or E. coli (not specified per kinase)
T2 sequence (O43781 1-588): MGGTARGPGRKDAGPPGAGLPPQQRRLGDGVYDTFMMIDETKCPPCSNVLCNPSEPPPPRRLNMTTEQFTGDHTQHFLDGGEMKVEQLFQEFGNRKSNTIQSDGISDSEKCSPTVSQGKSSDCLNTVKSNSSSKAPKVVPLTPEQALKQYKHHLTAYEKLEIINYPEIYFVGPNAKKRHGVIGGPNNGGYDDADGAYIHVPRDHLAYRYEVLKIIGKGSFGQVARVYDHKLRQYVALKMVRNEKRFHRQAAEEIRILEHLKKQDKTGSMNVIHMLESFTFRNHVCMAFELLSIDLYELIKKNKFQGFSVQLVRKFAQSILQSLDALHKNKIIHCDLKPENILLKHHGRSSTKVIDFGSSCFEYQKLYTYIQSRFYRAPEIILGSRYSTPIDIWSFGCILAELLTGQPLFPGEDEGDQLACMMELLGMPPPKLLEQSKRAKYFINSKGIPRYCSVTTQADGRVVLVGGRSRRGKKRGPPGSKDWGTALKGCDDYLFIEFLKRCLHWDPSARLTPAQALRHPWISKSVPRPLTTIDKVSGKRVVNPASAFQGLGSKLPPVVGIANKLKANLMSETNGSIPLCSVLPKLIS
Description: Radiometric protein kinase assay (33PanQinase Activity Assay), DYRK3. To be noted: read-out: IC50 on DYRK3 (most potent DYRK3 inhibitors). The method, then:
as §1, §2, §3, §4, §5, §6, §7

The target of the next experiment is T3, DYRK1A (Homo sapiens, UniProt Q13627).
T3 construct: GST-fusion or His-tag (not specified per kinase); purchased ProQinase GmbH; host or cells: Sf9 insect cells or E. coli (not specified per kinase)
Description: Radiometric protein kinase assay (33PanQinase Activity Assay), DYRK1A. To be noted: for Selectivity Class DYRK1A vs. CLK1: ratio of IC50 on CLK1 over IC50 on DYRK1A; for Selectivity Class DYRK1A vs. DYRK1B: ratio of IC50 on DYRK1B over IC50 on DYRK1A. The essentials: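 Recombinant human kinase, expressed in Sf9 or E. coli, in a radiometric [γ-33P]-ATP assay at 30 °C for 60 min. Compounds tested at 10 concentrations from 10 μM to 30 nM, 1% DMSO final. 33Pi incorporation measured by scintillation counting; IC50 from dose-response curves.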

The target in the next experiment is T4, CLK1 (Homo sapiens, UniProt P49759).
T4 construct: GST-fusion or His-tag (not specified per kinase); purchased ProQinase GmbH; host or cells: Sf9 insect cells or E. coli (not specified per kinase)
T4 sequence (P49759 whole entry, the tested form may be a part): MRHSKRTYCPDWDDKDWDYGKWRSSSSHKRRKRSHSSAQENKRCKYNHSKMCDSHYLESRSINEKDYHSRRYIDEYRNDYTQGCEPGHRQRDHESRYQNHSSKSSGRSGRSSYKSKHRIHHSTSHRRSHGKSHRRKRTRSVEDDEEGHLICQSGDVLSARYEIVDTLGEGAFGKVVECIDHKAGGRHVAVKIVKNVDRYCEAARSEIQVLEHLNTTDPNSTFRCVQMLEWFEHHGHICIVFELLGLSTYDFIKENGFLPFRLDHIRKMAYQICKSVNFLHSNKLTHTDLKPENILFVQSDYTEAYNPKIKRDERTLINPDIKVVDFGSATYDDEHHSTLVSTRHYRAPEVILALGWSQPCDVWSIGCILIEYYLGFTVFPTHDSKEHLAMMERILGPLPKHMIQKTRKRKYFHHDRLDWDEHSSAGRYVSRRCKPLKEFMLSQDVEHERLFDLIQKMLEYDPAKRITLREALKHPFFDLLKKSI
In words: Radiometric protein kinase assay (33PanQinase Activity Assay), CLK1. To be noted: read-out: Potency Class CLK1. The method, boiled down: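 Recombinant human kinases (GST- or His-tagged, full-length or active fragments, Sf9 or E. coli) in radiometric [γ-33P]-ATP assay, 30 °C for 60 min, 1% DMSO. Ten concentrations from 10 μM to 30 nM; 33Pi incorporation counted by scintillation, IC50 from dose-response curves.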

In the next experiment the target is T5, CLK4 (Homo sapiens, UniProt Q9HAZ1).
T5 construct: GST-fusion or His-tag (not specified per kinase); purchased ProQinase GmbH; host or cells: Sf9 insect cells or E. coli (not specified per kinase)
T5 sequence (Q9HAZ1 whole entry, the tested form may be a part): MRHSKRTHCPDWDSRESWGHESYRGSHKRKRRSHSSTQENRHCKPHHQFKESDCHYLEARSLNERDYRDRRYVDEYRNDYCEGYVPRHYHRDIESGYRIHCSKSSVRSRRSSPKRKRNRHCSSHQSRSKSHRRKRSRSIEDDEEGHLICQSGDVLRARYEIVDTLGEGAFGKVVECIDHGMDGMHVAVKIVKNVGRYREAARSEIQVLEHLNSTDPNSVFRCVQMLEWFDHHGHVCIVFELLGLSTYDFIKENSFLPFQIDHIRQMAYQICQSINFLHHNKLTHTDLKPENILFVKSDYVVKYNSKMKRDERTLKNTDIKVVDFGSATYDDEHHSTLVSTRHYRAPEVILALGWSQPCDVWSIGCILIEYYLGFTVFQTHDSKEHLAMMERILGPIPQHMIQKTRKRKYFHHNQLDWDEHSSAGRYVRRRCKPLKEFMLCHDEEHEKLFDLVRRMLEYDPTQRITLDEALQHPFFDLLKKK
Description: Radiometric protein kinase assay (33PanQinase Activity Assay), CLK4. As to conditions: read-out: IC50 on CLK4 (most potent CLK4 inhibitors). The protocol: as §1, §2, §3, §4, §5, §6, §7

The mark [1] stands for this setting: class by IC50 on DYRK1A, from dose-response curves, read-out: Potency Class DYRK1A.
The mark [2] stands for this setting: class by IC50 on CLK1, from dose-response curves.
[3] abbreviates: IC50 class A to E, read-out: Potency Class DYRK1A.

“And” between values parts separate entries of the source, which are not always exact repeats. Identical values can stand only once. Like-named read-outs stand apart in the source and are kept apart here. Bounds are passed on as bounds.

T1 sequence (P49760 whole entry, the tested form may be a part): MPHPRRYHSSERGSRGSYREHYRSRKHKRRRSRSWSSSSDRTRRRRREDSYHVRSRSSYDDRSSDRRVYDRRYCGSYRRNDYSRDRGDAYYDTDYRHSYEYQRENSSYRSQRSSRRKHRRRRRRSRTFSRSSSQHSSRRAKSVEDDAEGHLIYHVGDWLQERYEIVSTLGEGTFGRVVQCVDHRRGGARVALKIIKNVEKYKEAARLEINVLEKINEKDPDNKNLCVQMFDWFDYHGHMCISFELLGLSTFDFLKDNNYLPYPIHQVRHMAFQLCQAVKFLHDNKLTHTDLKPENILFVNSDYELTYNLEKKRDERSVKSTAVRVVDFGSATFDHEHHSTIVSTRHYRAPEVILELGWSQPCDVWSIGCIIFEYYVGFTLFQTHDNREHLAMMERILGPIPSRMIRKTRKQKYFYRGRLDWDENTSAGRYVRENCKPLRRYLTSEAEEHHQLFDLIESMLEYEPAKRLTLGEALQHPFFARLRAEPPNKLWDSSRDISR

With `O=C1NC(NC23CC4CC(CC(C4)C2)C3)=N/C1=C\c1ccc2cnccc2c1` [Compound 61, (4Z)-2-(1-adamantylamino)-4-(6-isoquinolylmethylene)-1H-imidazol-5-one], the IC50 at CLK2 was not above 100 nM; at DYRK3 it was not above 250 nM; on DYRK1A (setting [1]), 25 to 50 nM; on CLK1 (setting [2]), 25 to 50 nM. The “Selectivity Class DYRK1A vs. CLK1” value on DYRK1A is “III (ratio between 0.5 and 2 fold)”. Further, the “Selectivity Class DYRK1A vs. DYRK1B” value at DYRK1A is “III (ratio between 0.5 and 2 fold)”.
Consider `COC[C@H](NC1=N/C(=C\c2ccc3ncccc3n2)C(=O)N1)c1ccccc1` [Compound 71, (4Z)-2-[[(1R)-2-methoxy-1-phenyl-ethyl]amino]-4-(1,5-naphthyridin-2-ylmethylene)-1H-imidazol-5-one], for which the IC50 is more than 50 nM on DYRK1A (setting [3]); more than 50 nM at DYRK1A (setting [1]); not above 10 nM at CLK4; 10 to 25 nM on CLK1 (IC50 class A to E); 10 to 25 nM at CLK1 (setting [2]). For the same compound, on DYRK1A, the “Selectivity Class DYRK1A vs. CLK1” value was “IV (ratio between 0.1 and 0.5 fold)”. Further, the “Selectivity Class DYRK1A vs. DYRK1B” value at DYRK1A is “II (ratio between 2 and 10 fold)”.
Regarding `O=C1NC(NC23CC4CC(CC(C4)C2)C3)=N/C1=C\c1ccc2ncccc2c1` [Compound 49, (4Z)-2-(1-adamantylamino)-4-(6-quinolylmethylene)-1H-imidazol-5-one], the IC50 at CLK2 is not above 100 nM; on DYRK3 it was not above 250 nM; at DYRK1A (setting [3]) it was 10 to 25 nM and 5 to 10 nM; on DYRK1A (setting [1]), 10 to 25 nM; on DYRK1A (read-out: IC50 on DYRK1A (most potent DYRK1A inhibitors)), not above 10 nM; at CLK1 (IC50 class A to E), 10 to 25 nM. For the same compound, on CLK1 (setting [2]), the IC50 is 10 to 25 nM. For the same compound, the “Selectivity Class DYRK1A vs. CLK1” value on DYRK1A is “II (ratio between 2 and 10 fold)”. For the same compound, the “Selectivity Class DYRK1A vs. DYRK1B” value at DYRK1A is “III (ratio between 0.5 and 2 fold)”.
With `O=C1NC(NC23CC4CC(CC(C4)C2)C3)=N/C1=C\c1ccc2nccnc2c1` [Compound 17, (4Z)-2-(1-adamantylamino)-4-(quinoxalin-6-ylmethylene)-1H-imidazol-5-one], the results for the IC50 at CLK2, on DYRK1A (setting [1]) and at CLK1 (setting [2]) were not above 100 nM, 10 to 25 nM and 25 to 50 nM, respectively. The “Selectivity Class DYRK1A vs. CLK1” value at DYRK1A was “II (ratio between 2 and 10 fold)”. The “Selectivity Class DYRK1A vs. DYRK1B” value on DYRK1A is “II (ratio between 2 and 10 fold)”.
Take `CCOC[C@@H](CC(C)C)NC1=N/C(=C\c2ccc3nccnc3c2)C(=O)N1` [Compound 11, (4Z)-2-[[(1R)-1-(ethoxymethyl)-3-methyl-butyl]amino]-4-(quinoxalin-6-ylmethylene)-1H-imidazol-5-one]: the IC50 at DYRK1A (setting [1]) is 10 to 25 nM. Moreover, on DYRK1A, the “Selectivity Class DYRK1A vs. CLK1” value is on record as “I (ratio of IC50 on CLK1 or DYRK1B over IC50 on DYRK1A ≥10 fold (most DYRK1A-selective compounds))”; the “Selectivity Class DYRK1A vs. DYRK1B” value was “II (ratio between 2 and 10 fold)”. Besides, the IC50 at CLK1 (setting [2]) was more than 50 nM.
For the compound `COC[C@H](NC1=N/C(=C\c2ccc3cnccc3c2)C(=O)N1)c1ccccc1` [Compound 63, (4Z)-4-(6-isoquinolylmethylene)-2-[[(1R)-2-methoxy-1-phenyl-ethyl]amino]-1H-imidazol-5-one], on DYRK1A (setting [1]), the IC50 is more than 50 nM. In addition, at DYRK1A, the “Selectivity Class DYRK1A vs. CLK1” value was “IV (ratio between 0.1 and 0.5 fold)”; the “Selectivity Class DYRK1A vs. DYRK1B” value was “III (ratio between 0.5 and 2 fold)”. For the same compound, the IC50 on CLK1 (setting [2]) is more than 50 nM.
On to `O=C1NC(NCc2ccccc2)=N/C1=C\c1ccc2ncccc2c1` [Compound 51], for which, on DYRK1A (setting [1]), the IC50 was more than 50 nM. In addition, on DYRK1A, the “Selectivity Class DYRK1A vs. CLK1” value was “IV (ratio between 0.1 and 0.5 fold)”; the “Selectivity Class DYRK1A vs. DYRK1B” value is “II (ratio between 2 and 10 fold)”. Besides, the IC50 at CLK1 (setting [2]) is more than 50 nM.
Regarding `COC[C@H](NC1=N/C(=C\c2ccc3ncccc3c2)C(=O)N1)c1ccccc1` [Compound 52, (4Z)-2-[[(1R)-2-methoxy-1-phenyl-ethyl]amino]-4-(6-quinolylmethylene)-1H-imidazol-5-one], the IC50 at DYRK1A (setting [1]) was more than 50 nM. Besides, at DYRK1A, the “Selectivity Class DYRK1A vs. CLK1” value is “III (ratio between 0.5 and 2 fold)”; the “Selectivity Class DYRK1A vs. DYRK1B” value was “II (ratio between 2 and 10 fold)”. Besides, the IC50 at CLK1 (setting [2]) is more than 50 nM.
In the case of `Cn1ccc(NC2=N/C(=C\c3ccc4cnccc4c3)C(=O)N2)n1` [Compound 65, (4Z)-4-(6-Isoquinolylmethylene)-2-[(1-methylpyrazol-3-yl)amino]-1H-imidazol-5-one], the IC50 on DYRK1A (setting [1]) is more than 50 nM. In addition, at DYRK1A, the “Selectivity Class DYRK1A vs. CLK1” value was “IV (ratio between 0.1 and 0.5 fold)”; the “Selectivity Class DYRK1A vs. DYRK1B” value is “III (ratio between 0.5 and 2 fold)”. The IC50 at CLK1 (setting [2]) is more than 50 nM.
For the compound `Cc1cnc(CNC2=N/C(=C\c3ccc4nccnc4c3)C(=O)N2)cn1` [Compound 30, (4Z)-2-[(5-methylpyrazin-2-yl)methylamino]-4-(quinoxalin-6-ylmethylene)-1H-imidazol-5-one], the IC50 on DYRK1A (setting [1]) and at CLK1 (setting [2]) was more than 50 nM in each case. At DYRK1A, the “Selectivity Class DYRK1A vs. CLK1” value is “IV (ratio between 0.1 and 0.5 fold)”. Also, the “Selectivity Class DYRK1A vs. DYRK1B” value on DYRK1A is “II (ratio between 2 and 10 fold)”.
As to `O=C1NC(NCC2CCOCC2)=N/C1=C\c1ccc2nccnc2c1` [Compound 32, (4Z)-4-(quinoxalin-6-ylmethylene)-2-(tetrahydropyran-4-ylmethylamino)-1H-imidazol-5-one], the IC50 on DYRK1A (setting [1]) was more than 50 nM. In addition, on DYRK1A, the “Selectivity Class DYRK1A vs. CLK1” value is “III (ratio between 0.5 and 2 fold)”; the “Selectivity Class DYRK1A vs. DYRK1B” value was “II (ratio between 2 and 10 fold)”. For the same compound, the IC50 on CLK1 (setting [2]) is more than 50 nM.
